Data reported in patent publication US20230272009A1, “Peptide, Peptide Salt, Pharmaceutical Composition and Biological Tissue Calcification Inhibitor” (Hiroshima University, priority 2020, published 2023).
Square brackets hold non-standard residues; d marks the D form. Ends that are not written are not given here. pS = N[C@@H](COP(=O)(O)O)C(=O)O

Key:
thoracic aorta = test: Calcification of cultured thoracic aorta rings under high phosphate load (headed 'in vivo calcification inhibitory activity'); assay type: cell-based, C57BL/6 mouse; conditions: for Calcification of thoracic aorta tissue (alizarin red staining): versus PBS solvent
Experimental: The thoracic aorta was harvested from a C57BL/6 mouse (10-week-old male), and then cut into ring-shaped portions (2 to 3 mm), which were cultured in 10% FCS DMEM (Dulbecco’s Moodified Eagle’s Medium, high glucose). From the next day, the peptides were added, and the resultants were loaded together with phosphoric acid having a high concentration (sodium phosphate, final concentration of 3 mM), and cultured for 10 days. The tissues immobilized with PFA were stained with alizarin red, and the vessel walls were incised and opened, and observed with a stereoscopic microscope. Moreover, the contents of calcium in liquid extracts obtained by decalcifying the vessels, cultured in a similar manner, with 10% formic acid for 24 hours were measured using a calcium quantification kit (Calcium C-test Wako, manufactured by Wako Pure Chemical Industries, Ltd.).

[1] = Evaluation of stability: residual rate in mouse serum by HPLC; assay type: in vitro ADME; conditions: C57BL/6 mouse serum, 37° C., 7 days or 14 days
Experimental: (§1) The amount of 1/20 to 1/25 of Comparative Example 2 or Example 5 (each 100 mM) was added to PBS or C57BL/6 mouse serum, and incubated at 37° C. for 7 days or 14 days. In measurement using the serum, 4 M perchloric acid (PCA) of which the amount was equal to the amount of a sample was added, and the resultant was diluted to 2-fold with MQ water and left to stand on ice for 5 minutes. The supernatant obtained by centrifugation for 2 minutes was subjected to HPLC (ODS column and 0.1% TFA/ acetonitrile). The residual rates of the test substances were calculated in a case in which the peak area of a sample adjusted before use was set at 100.

[2] = system: mouse osteoblast strain MC3T3-E1; test: Examination of in vitro calcification inhibitory activity (von Kossa staining of matrix calcification); assay type: cell-based; conditions: relative to Comparative Example 2 set at 100, MC3T3-E1, 3 mM βGP, 24 hours
Experimental: A mouse osteoblast strain MC3T3-E1 was cultured in a bone differentiation medium (α MEM (Eagle’s minimum essential medium, alpha modification) + 50 µg/mL ascorbic acid, 10% fetal calf serum) to form osteoid-like nodules. In order to induce calcification, 3 mM β-glycerophosphoric acid (hereinafter, “βGP”) was added together with a test substance to the medium. The strain was cultured for 24 hours after the addition of the test substance, and cells were washed with PBS, immobilized with 10% neutral buffered formalin, and then subjected to von Kossa staining. The matrix calcification was evaluated by measurement of calcium spots stained with von Kossa in the extracellular matrices of alkaline phosphatase (ALP)-stained positive cells, which were osteoblastic markers, with a stereoscopic microscope.

caALK2Q207D mice = test: Evaluation of drug efficacy in FOP model (µCT of leg region); assay type: in vivo; conditions: Ad-Cre intramuscular, intraperitoneal 0.03 mg/mouse/day, day 6
Experimental: Cre recombinase recombinant adenovirus (Ad-Cre, manufactured by Vector Biolabs) was intramuscularly administered (2 × 10^7 pfu) to the crural muscles (triceps muscles) of 7-day-old caALK2Q207D mice (Paul B Yu and the 14 others, “BMP type I receptor inhibition reduces heterotopic ossification” Nat Med, 2008, 14(12), 1363-1369). Next day, Example 5 was intraperitoneally administered (0.03 mg/mouse/day). On day 6, the leg region was immobilized with 4% para-formaldehyde PBS, and µCT images were acquired.

[3] = system: Enpp1 mutated mice (C57BL/6J-Enpp1asj/asj); test: Evaluation of drug efficacy in GACI model (aortic calcification score); assay type: in vivo, mouse; conditions: high phosphorus diet, continuous intravenous administration for 2 weeks by osmotic pump
Source text: The biallelic mutation of an Enpp1 gene is observed at 75% of GACI. Thus, the drug efficacy of the peptide was examined using Enpp1 mutated mice. Fertilized eggs from the Enpp1 mutated mice (C57BL/6J-Enpp1^asj/asj) were transplanted into ICR mice, and bred with a high phosphorus diet (AIN-93G-based, 0.4% Ca, 0.85% P, 0.04% Mg) immediately after deliveries. Male Enpp1^asj mice were weaned from the mothers 4 weeks after the births, and fed with a high phosphorus diet during an experimental period. […] A catheter was indwelled in the right cervical vein 6 to 7 weeks after the birth, and Example 5 was continuously administered for 2 weeks by an osmotic pump (manufactured by Altez). The thoracic (ventral) aorta was harvested, then immobilized with 4% para-formaldehyde PBS, washed, and then stained with alizarin red 0.5% KOH. The tissue was washed, and then preserved in 70% EtOH. For the obtained tissue, the calcification of the alizarin red-positive region of the thoracic aorta was scored (maximum value of 3) under the stereoscopic microscope.

[4] = Evaluation of stability: residual rate in PBS by HPLC; assay type: physicochemical; conditions: 37° C., 7 days or 14 days, HPLC peak area, sample before use set at 100
Experimental: as §1

ddY mice = test: Evaluation of safety, influence on osteogenesis (4-week continuous intravenous administration); assay type: in vivo, mouse; conditions: 4 weeks
Experimental: Thus, toxicity, particularly an influence on osteogenesis was examined using Comparative Example 2, as described below.
Catheters were indwelled in the jugular veins of 6-week-old ddY mice, and Comparative Example 2 was continuously administered at a high dose (1 mg/mouse/day) or low dose (0.1 mg/mouse/day) for 4 weeks using an osmotic pump (manufactured by Alzert). The low dose is 10 or more times as much as an effective drug efficacy concentration. Evaluation items were set to a body weight, the amount of intake of a food and drink, blood biochemistry (including calcium and phosphoric acid), the weights of principal organs, and histopathology. Moreover, bone structures were evaluated by µCT, and bone strengths were evaluated in a three-point bending test.

[5] = aorta rings, sodium phosphate 3 mM, cultured 10 days

## Ac-SSESSESGSSSESD(C)-NH2 (N-Ac/chloroacetyl thioether cyclised, added C-terminal Cys amide; Phosphopeptide; MOD_RES (9)..(9) PHOSPHORYLATION; MOD_RES (11)..(11) PHOSPHORYLATION; MOD_RES (13)..(13) PHOSPHORYLATION) [Example 5]
Thoracic aorta; aorta rings loaded with phosphoric acid (Pi), decalcified with 10% formic acid, compared with Comparative Example 2
  Calcium content per protein: less than that in Comparative Example 2
Thoracic aorta; [5]
  Calcification inhibitory effect compared with Comparative Example 2 (alizarin red staining): superior to that in Comparative Example 2
  Calcification of thoracic aorta tissue (alizarin red staining): calcification was inhibited
[1]
  Residual rate in mouse serum: inhibited in comparison with Comparative Example 2
[2]
  Calcification inhibitory activity (relative): 500-1000<
caALK2Q207D mice
  Calcification in leg region (µCT images): no calcification was confirmed
[3]
  Vascular calcification (calcification score of thoracic aorta, maximum value of 3): inhibited
[4]
  Residual rate in PBS: not decreased

## DDSSESSDSGSSSESD (SEQ ID NO:12) (DDSSESSDSG[pS]S[pS]E[pS]D) [Example 1]
[2]
  Calcification inhibitory activity (relative): 100

## RDDSSESSDSGSSSESDGD (SEQ ID NO:10) (ASARM peptide) [Comparative Example 1, reference compound]
[2]
  Calcification inhibitory activity (relative): 0

## RDDSSESSDSGSSSESDGD (SEQ ID NO:11) (RDDSSESSDSG[pS]S[pS]E[pS]DGD) [Comparative Example 2, reference compound]
Thoracic aorta; [5]
  Calcification of thoracic aorta tissue (alizarin red staining): calcification was inhibited
[2]
  Calcification inhibitory activity (relative): 100
ddY mice; 1 mg/mouse/day or 0.1 mg/mouse/day continuous intravenous
  Abnormal findings in body weight, intake of food and drink, blood biochemistry, weights of principal organs, histopathology: Any abnormal findings were not observed
ddY mice; high and low doses, µCT and three-point bending test
  Bone volume (BV), bone mineral content (BMC), bone mineral density (BMD), bone strength (maximum load) versus PBS: no significant differences
[4]
  Residual rate in PBS: decreased over time

## SSESSDSGSSSESD (SEQ ID NO:8) (SSESSDSG[pS]S[pS]E[pS]D) [Example 2]
[2]
  Calcification inhibitory activity (relative): 100

## SSESSESGSSSESD (SEQ ID NO:9) (SSESSESG[pS]S[pS]E[pS]D) [Example 3]
[2]
  Calcification inhibitory activity (relative): 200<

## SSESSESGSSSESD (SEQ ID NO:13) (SSESSESGSS[pS]E[pS]D) [Example 4]
[2]
  Calcification inhibitory activity (relative): 110<
